Measurements published in patent publication US20200325543A1, “DIAGNOSTIC METHOD” (TOLREMO THERAPEUTICS AG, priority 2017, published 2020).

Key:
[1] = system: genes associated with stemness/EMT; test: RNA-Seq / qPCR of genes associated with stemness/EMT in melanoma cells; type: cell-based; details: A375-P cells, 1 μM PLX4720, 0.5 μM AZD6244 or both, 24 h, versus 0.01% DMSO
Description: Data shown represent mean of independent biological triplicates ±SEM. (E) Western blot analysis of the same experiment as shown in (D). […] P-ERK1/2 levels served as positive treatment controls. Total ERK1/2 levels served as loading control. (F) A375-P cells were treated with 1 μM PLX4720, 0.5 μM AZD6244 (MEK1/2 inhibitor) or 0.01% DMSO for the indicated times and SOX2 levels were assessed by Western blot analysis. […] (G) A375-P cells were treated with 1 μM PLX4720 (BRAFi), 0.5 μM AZD6244 (MEKi), a combination of both drugs or 0.01% DMSO for the indicated times and SOX2 levels were assessed by Western blot analysis. […] For all Western blots, individual time points were assessed in at least two independent experiments. Representative data is shown.

[2] = system: SOX2; test: SOX2 levels by Western blot in A375-P cells; type: cell-based; details: 1 μM PLX4720, 0.5 μM AZD6244 or both, indicated times, versus 0.01% DMSO
Description: (A) A375-P cells were treated with PLX4720 (BRAFi) or DMSO for 6 h, RNA was isolated and RNA-Seq was performed. […] Differentially expressed genes (DEGs) selected for pathway analysis are represented by red and blue dots depending on the direction of the transcriptional change (red genes are induced upon PLX4720, blue genes are repressed upon PLX4720). (B) Bar graphs showing the five top pathways with significant enrichment of the analyzed DEGs. Longer bars indicate stronger significance. (C) Top deregulated genes upon treatment with PLX4720 (left column). Top genes induced and repressed by PLX4720 are shown in separate lists. (D) Indicated cell lines were treated with 1 μM PLX4720 or 0.01% DMSO (0 h) for the indicated times and the expressional changes of selected genes associated with stemness/EMT were confirmed by qPCR. […] As key player in the sternness signature, SOX2 levels were assessed. […] (F) A375-P cells were treated with 1 μM PLX4720, 0.5 μM AZD6244 (MEK1/2 inhibitor) or 0.01% DMSO for the indicated times and SOX2 levels were assessed by Western blot analysis. […] (G) A375-P cells were treated with 1 μM PLX4720 (BRAFi), 0.5 μM AZD6244 (MEKi), a combination of both drugs or 0.01% DMSO for the indicated times and SOX2 levels were assessed by Western blot analysis. […] For all Western blots, individual time points were assessed in at least two independent experiments. […]

[3] = system: SOX2; test: Screen of a library of FDA-approved drugs for SOX2 antibody staining in A375 cells treated with PLX4720 and AZD6244; details: for cor. loess / norm / raw: A375 cells, 5 uM test drug with 1 uM PLX4720 and 0.5 uM AZD6244, 24 h; for cor. loess: normalized and geometry-corrected (loess) signal; for norm: signal after plate normalization; for z: Z-test against negative controls (DMSO), single dose 5 uM; for raw: raw signal (ratio of FL2 SOX2 antibody and FL3 nuclear staining), screen run in duplicate
[4] = system: S6K and BAD; test: Survival signaling by Western blot in A375-P/pTRIPZ cells; type: cell-based; details: A375-P/pTRIPZ-control or -SOX2 cells, PLX4720 48 h
Description: (A) A375-P cells were transfected with 100 nM siRNA targeting SOX2 or a negative control siRNA. Cells were then treated with PLX4720 (BRAFi) or DMSO for 48 h. 2 h before harvesting, cells were pulsed with 3 uM EdU to label cycling cells. EdU-positive cells were detected using flow cytometry. Note that SOX2 knockdown has no effect on cell proliferation when BRAF is active (DMSO) but reduces the pool of drug-tolerant, cycling cells in the BRAFi condition. Representative data is shown. (B) Quantification of experiment (A). For each condition, percentage of cycling cells upon siRNA knockdown of SOX2 was normalized to the negative control siRNA. Data shown represent mean of independent biological triplicates ±SEM. (C) A375-P cells stably transduced with pTRIPZ-SOX2 vector were treated with the indicated concentrations of doxycycline for three days or with 1 μM PLX4720 (PLX) for 24 h. SOX2 overexpression was confirmed by Western blot analysis. Lamin A served as loading control. Individual concentrations were assessed in at least two independent experiments. Representative results are shown. […] EdU-positive cells were detected using flow cytometry. […] Cell viability was assessed by PrestoBlue assay and IC50 values were calculated. […] Survival signaling was assessed by Western blot. […]

SMILES | expressional changes of selected genes associated with stemness/EMT (qPCR) [1] | SOX2 levels (Western blot) [2] | cor. loess [3] | norm [3] | z [3] | raw [3] | Survival signaling via S6K and BAD (Western blot) [4]
Cn1cnc2c(F)c(Nc3ccc(Br)cc3Cl)c(C(=O)NOCCO)cc21 [AZD6244] | comparable effects on transcript levels | induce similar SOX2 levels |  |  |  |  | 
CC(C)(C)c1ccc(C(O)CCCN2CCC(C(O)(c3ccccc3)c3ccccc3)CC2)cc1 (centres unmarked) [TERFENADINE] |  |  | 0.2601 | 0.5459 | 3.539 |  | 
C[C@@H]1C[C@H]2[C@@H]3CCC4=CC(=O)C=C[C@]4(C)[C@@]3(F)[C@@H](O)C[C@]2(C)[C@@]1(O)C(=O)COP(=O)(O)O [DEXAMETHASONE SODIUM PHOSPHATE] |  |  | 0.5299 | 0.5817 | 4.367 | 0.9748 | 
C[C@@H]1C[C@@H]([C@H](O)CC2CC(=O)NC(=O)C2)C(=O)[C@@H](C)C1 [CYCLOHEXIMIDE] |  |  | 0.6971 | 0.6756 | 5.982 | 0.9738 | 
Nc1ncn([C@@H]2O[C@H](CO)[C@@H](O)[C@H]2O)c(=O)n1 [AZACITIDINE] |  |  | 0.9945 | 0.9714 | 8.534 | 0.9651 | 
CCCS(=O)(=O)Nc1ccc(F)c(C(=O)c2c[nH]c3ncc(Cl)cc23)c1F [PLX4720] | comparable effects on transcript levels | induce similar SOX2 levels |  |  |  |  | repressed
Nc1cc(F)ccc1NC(=O)c1ccc(CNC(=O)/C=C/c2cccnc2)cc1 [Chidamide] |  |  | 1.067 | 1.02 | 7.547 | 0.9618 | 
CCS(=O)(=O)N1CCN(c2ccc(Nc3ncc(C(N)=O)c(NC4CC4)n3)cc2)CC1 [Cerdulatinib (PRT062070, PRT2070), Cerdulatinib] |  |  | 0.4672 | 0.6248 | 3.646 | 0.9741 | 
CC(=O)Nc1c(I)cc(I)c(C(=O)O)c1I [ACETRIAZOIC ACID] |  |  | 0.3537 | 0.3797 | 4.812 | 0.9817 | 
CC(=O)O[C@H]1C(=O)[C@@]2(C)[C@H]([C@H](OC(=O)c3ccccc3)[C@]3(O)C[C@H](OC(=O)[C@H](O)[C@@H](NC(=O)c4ccccc4)c4ccccc4)C(C)=C1C3(C)C)[C@]1(OC(C)=O)CO[C@@H]1C[C@@H]2O [PACLITAXEL] |  |  | 0.341 | 0.3501 | 4.64 | 0.9826 | 
CCN1CCN(Cc2ccc(Nc3ncc(F)c(-c4cc(F)c5nc(C)n(C(C)C)c5c4)n3)nc2)CC1 [LY2835219] |  |  | 1.234 | 1.024 | 4.755 | 0.963 | 
CCOc1cc2ncc(C#N)c(Nc3ccc(F)c(Cl)c3)c2cc1NC(=O)/C=C/CN(C)C [Pelitinib (EKB-569), Pelitinib] |  |  | 0.7376 | 0.828 | 5.755 | 0.9677 | 
